Results published in patent US7375232B2, “Ortho-heterocyclic substituted aryl amides for controlling invertebrate pests” (E.I. du Pont de Nemours and Company, priority 2001, dated 2008).

melting point: 87 to 89 °C
SMILES: Cc1cc(Cl)cc(-n2cccn2)c1NC(=O)c1cc(C(F)(F)F)nn1-c1ccccc1Cl [Compound 16]
